Data taken from US20090054493A1, “THIAZOLE DERIVATIVES AS PPAR DELTA LIGANDS AND THEIR MANUFACTURING PROCESS” (priority 2005, published 2009).

Assays:
Assay type in all cases: cell-based
PPARα = target: T1, PPARα (Homo sapiens, UniProt Q07869); test: Transfection assay (luciferase reporter) in CV-1 cells, PPARα; conditions: full-length PPAR plasmid, luciferase normalized with β-galactosidase
T1 construct: full-length PPARs plasmid DNA; expressed in transfected cells; host or cells: CV-1 cells
T1 sequence (Q07869 1-468): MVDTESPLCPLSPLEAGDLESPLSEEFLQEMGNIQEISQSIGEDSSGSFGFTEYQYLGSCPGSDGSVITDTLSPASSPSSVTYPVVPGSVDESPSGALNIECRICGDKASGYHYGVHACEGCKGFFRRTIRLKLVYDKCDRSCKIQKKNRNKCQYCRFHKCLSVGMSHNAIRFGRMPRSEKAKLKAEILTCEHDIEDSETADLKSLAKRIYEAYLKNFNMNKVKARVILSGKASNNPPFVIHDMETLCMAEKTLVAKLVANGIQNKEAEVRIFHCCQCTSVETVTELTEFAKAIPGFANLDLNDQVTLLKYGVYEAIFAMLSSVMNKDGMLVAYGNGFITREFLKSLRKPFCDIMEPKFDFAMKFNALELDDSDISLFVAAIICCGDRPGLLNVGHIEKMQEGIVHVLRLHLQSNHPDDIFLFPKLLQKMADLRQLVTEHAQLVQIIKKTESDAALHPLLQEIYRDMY
Protocol: (§1) The compounds prepared in Examples were tested for PPARδ activity by a transfection assay. In addition, the compounds were tested for selectivity for PPARα and PPARγ, the subtypes of PPARs, and also tested for toxicity by a MTT assay.
(§2) A transfection assay was performed using CV-1 cells. The culture of the cells was performed using a DMEM medium (10% FBS, DBS (delipidated) and 1% penicillin/streptomycin) on a 96-well plate in a 5% carbon dioxide-containing incubator at 37° C. The test was performed in four steps consisting of cell inoculation, transfection, treatment of the compounds, and analysis of results. Specifically, CV-1 cells were inoculated onto a 96-well plate at a concentration of 5,000 cells/well, and after 24 hours, the cells were transfected. In the cell transfection, full-length PPARs plasmid DNA, reporter DNA that has luciferase activity and thus allows the identification of PPARs, and β-galactosidase DNA that provides the information of transfection efficiency, were used as transfection reagents. Each of the compounds developed in the present invention was dissolved in dimethylsulfoxide (DMSO) and transfected into the cells at various concentrations using media. The cells were cultured in an incubator for 24 and then lysed with lysis buffer. The lysed cells were measured for luciferase and β-galactosidase activities using a luminometer and a microplate reader. The measured luciferase values were normalized with the β-galactosidase values and graphed. From the graph, EC50 values were determined.

PPARγ = target: T2, PPARγ (Homo sapiens, UniProt P37231); test: Transfection assay (luciferase reporter) in CV-1 cells, PPARγ; conditions: full-length PPAR plasmid, luciferase normalized with β-galactosidase
T2 construct: full-length PPARs plasmid DNA; expressed in transfected cells; host or cells: CV-1 cells
T2 sequence (P37231 1-505): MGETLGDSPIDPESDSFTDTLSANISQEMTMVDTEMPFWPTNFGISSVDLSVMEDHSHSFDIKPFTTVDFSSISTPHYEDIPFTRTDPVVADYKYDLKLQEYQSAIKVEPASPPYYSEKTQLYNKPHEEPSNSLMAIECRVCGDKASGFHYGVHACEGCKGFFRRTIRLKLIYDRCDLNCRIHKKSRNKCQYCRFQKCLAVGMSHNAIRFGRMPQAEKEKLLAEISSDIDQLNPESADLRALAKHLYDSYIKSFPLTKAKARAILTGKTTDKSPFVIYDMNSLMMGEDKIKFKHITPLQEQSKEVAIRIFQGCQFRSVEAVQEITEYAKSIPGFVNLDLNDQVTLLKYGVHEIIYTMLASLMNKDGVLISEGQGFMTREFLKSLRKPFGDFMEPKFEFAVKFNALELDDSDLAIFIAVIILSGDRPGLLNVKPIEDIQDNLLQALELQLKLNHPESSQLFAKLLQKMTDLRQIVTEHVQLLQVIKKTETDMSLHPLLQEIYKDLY
Protocol: as §1
as §2, with “The test was performed in four steps consisting of cell inoculation, transfection, treatment of the compounds, and analysis of results.” left out

MTT assay, cytotoxicity = conditions: African green monkey, CV-1 cells, read-out: LC50 Cytotoxicity
Protocol: The compounds of Examples 47-97 according to the present invention were tested for cytotoxicity using a MTT assay. MTT is a water-soluble yellow substance, but if it is introduced into living cells, it will be degenerated into a water-insoluble purple crystal due to dehydrogenase contained in mitochondria. If this substance is dissolved in dimethylsulfoxide and then measured for absorbance at 550 nm, cytotoxicity can be assayed. The test method is as follows.
CV-1 cells were first inoculated onto a 96-well plate at a concentration of 5,000 cells/well. The inoculated cells were cultured in a 5% carbon dioxide-containing humidified incubator at 37° C. for 24 hours, and then treated with the inventive compounds at various concentrations. After 24 hours of culture, a MTT reagent was added to the cultured cells. After 15 minutes of culture, the resulting purple crystal was dissolved in dimethylsulfoxide and then measured for absorbance using a microplate reader. From the measured absorbance, cytotoxicity was assayed.

PPARδ = target: T3, PPARδ (Homo sapiens, UniProt Q03181); test: Transfection assay (luciferase reporter) in CV-1 cells, PPARδ; parameters: full-length PPARs plasmid DNA; expressed in transfected cells; host or cells: CV-1 cells; conditions: full-length PPAR plasmid, luciferase normalized with β-galactosidase
T3 sequence (Q03181 1-441): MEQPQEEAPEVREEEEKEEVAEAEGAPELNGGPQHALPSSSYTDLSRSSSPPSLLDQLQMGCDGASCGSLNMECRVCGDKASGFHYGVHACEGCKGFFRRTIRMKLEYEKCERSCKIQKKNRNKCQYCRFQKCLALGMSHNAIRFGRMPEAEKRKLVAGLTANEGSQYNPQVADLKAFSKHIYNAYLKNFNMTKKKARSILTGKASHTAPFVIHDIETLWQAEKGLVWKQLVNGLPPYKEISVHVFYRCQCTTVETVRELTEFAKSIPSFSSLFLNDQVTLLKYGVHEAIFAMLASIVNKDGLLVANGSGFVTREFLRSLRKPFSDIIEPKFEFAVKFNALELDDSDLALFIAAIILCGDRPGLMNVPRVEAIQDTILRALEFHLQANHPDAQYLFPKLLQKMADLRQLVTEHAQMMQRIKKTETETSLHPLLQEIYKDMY
Protocol: as §1
as §2, with “The test was performed in four steps consisting of cell inoculation, transfection, treatment of the compounds, and analysis of results.” left out

| SMILES | EC50 PPARα (PPARα) | EC50 PPARγ (PPARγ) | CC50 at 24 h (MTT assay, cytotoxicity) | EC50 (PPARδ) | EC50 (PPARα) |
| --- | --- | --- | --- | --- | --- |
| Cc1cc(SC(Cc2c(F)cccc2Cl)c2sc(-c3ccc(C(F)(F)F)cc3)nc2C)ccc1OCC(=O)O (stereo not shown) [Example 75, 2-[4-[2-(2-chloro-6-fluorophenyl)-1-[2-[4-(trifluoromethyl)phenyl]-4-methylthiazol-5-yl]ethylthio]-2-methylphenoxy]acetic acid] | ia | ia | > 100000 nM | 2.1 nM | – |
| Cc1cc(SC(CCCCc2ccccc2)c2sc(-c3ccc(C(F)(F)F)cc3)nc2C)ccc1OCC(=O)O (stereo not shown) [Example 71, 2-[4-[1-[2-[4-(trifluoromethyl)phenyl]-4-methylthiazol-5-yl]-5-phenylpentylthio]-2-methylphenoxy]acetic acid] | ia | ia | 93000 nM | 38.8 nM | – |
| Cc1cc(SC(Cc2ccc(F)cc2F)c2sc(-c3ccc(C(F)(F)F)cc3)nc2C)ccc1OCC(=O)O (stereo not shown) [Example 85, 2-[4-[1-[2-[4-(trifluoromethyl)phenyl]-4-methylthiazol-5-yl]-2-(2,4-difluorophenyl)ethylthio]-2-methylphenoxy]acetic acid] | ia | ia | > 100000 nM | 3.4 nM | – |
| Cc1cc(SC(CCCCCc2ccccc2)c2sc(-c3ccc(C(F)(F)F)cc3)nc2C)ccc1OCC(=O)O (stereo not shown) [Example 72, 2-[4-[1-[2-[4-(trifluoromethyl)phenyl]-4-methylthiazol-5-yl]-6-phenylhexylthio]-2-methylphenoxy]acetic acid] | ia | ia | 92000 nM | 11.5 nM | – |
| Cc1cc(SC(Cc2cc(F)ccc2Cl)c2sc(-c3ccc(C(F)(F)F)c(F)c3)nc2C)ccc1OCC(=O)O (stereo not shown) [Example 97, 2-[4-[2-(2-chloro-5-fluorophenyl)-1-[2-[3-fluoro-4-(trifluoromethyl)phenyl]-4-methylthiazol-5-yl]ethylthio]-2-methylphenoxy]acetic acid] | ia | ia | > 30000 nM | 17.4 nM | – |
| Cc1cc(SC(Cc2cc(F)c(F)c(F)c2)c2sc(-c3ccc(C(F)(F)F)c(F)c3)nc2C)ccc1OCC(=O)O (stereo not shown) [Example 92, 2-[4-[1-[2-[3-fluoro-4-(trifluoromethyl)phenyl]-4-methylthiazol-5-yl]-2-(3,4,5-trifluorophenyl)ethylthio]-2-methylphenoxy]acetic acid] | ia | ia | > 30000 nM | 21.6 nM | – |
| Cc1cc(SC(Cc2c(F)cccc2F)c2sc(-c3ccc(C(F)(F)F)c(F)c3)nc2C)ccc1OCC(=O)O (stereo not shown) [Example 94, 2-[4-[1-[2-[3-fluoro-4-(trifluoromethyl)phenyl]-4-methylthiazol-5-yl]-2-(2,6-difluorophenyl)ethylthio]-2-methylphenoxy]acetic acid] | ia | ia | > 10000 nM | 0.9 nM | – |
| Cc1cc(SC(Cc2ccc(C(F)(F)F)cc2)c2sc(-c3ccc(C(F)(F)F)cc3)nc2C)ccc1OCC(=O)O (stereo not shown) [Example 78, 2-[4-[2-[4-(trifluoromethyl)phenyl]-1-[2-[4-(trifluoromethyl)phenyl]-4-methylthiazol-5-yl]ethylthio]-2-methylphenoxy]acetic acid] | ia | ia | > 100000 nM | 13.3 nM | – |
| Cc1cc(SC(Cc2ccc(Br)cc2)c2sc(-c3ccc(C(F)(F)F)cc3)nc2C)ccc1OCC(=O)O (stereo not shown) [Example 81, 2-[4-[2-(4-bromophenyl)-1-[2-[4-(trifluoromethyl)phenyl]-4-methylthiazol-5-yl]ethylthio]-2-methylphenoxy]acetic acid] | – | ia | 92000 nM | 11.5 nM | – |
| COc1cc(CC(Sc2ccc(OCC(=O)O)c(C)c2)c2sc(-c3ccc(C(F)(F)F)cc3)nc2C)cc(OC)c1 (stereo not shown) [Example 79, 2-[4-[1-[2-[4-(trifluoromethyl)phenyl]-4-methylthiazol-5-yl]-2-(3,5-dimethoxyphenyl)ethylthio]-2-methylphenoxy]acetic acid] | ia | ia | > 100000 nM | 46.4 nM | – |
| Cc1cc(SC(Cc2ccc(F)cc2F)c2sc(-c3ccc(C(F)(F)F)c(F)c3)nc2C)ccc1OCC(=O)O (stereo not shown) [Example 96, 2-[4-[1-[2-[3-fluoro-4-(trifluoromethyl)phenyl]-4-methylthiazol-5-yl]-2-(2,4-difluorophenyl)ethylthio]-2-methylphenoxy]acetic acid] | – | ia | > 10000 nM | 4.8 nM | > 10000 nM |
| Cc1cc(SC(Cc2c(F)cccc2C(F)(F)F)c2sc(-c3ccc(C(F)(F)F)cc3)nc2C)ccc1OCC(=O)O (stereo not shown) [Example 82, 2-[4-[2-[2-fluoro-6-(trifluoromethyl)phenyl]-1-[2-[4-(trifluoromethyl)phenyl]-4-methylthiazol-5-yl]ethylthio]-2-methylphenoxy]acetic acid] | ia | – | > 100000 nM | 2.6 nM | – |
| Cc1cc(SC(Cc2c(F)c(F)c(F)c(F)c2F)c2sc(-c3ccc(C(F)(F)F)cc3)nc2C)ccc1OCC(=O)O (stereo not shown) [Example 80, 2-[4-[1-[2-[4-(trifluoromethyl)phenyl]-4-methylthiazol-5-yl]-2-(perfluorophenyl)ethylthio]-2-methylphenoxy]acetic acid] | ia | – | > 100000 nM | 46.4 nM | – |
